Data taken from the supplement of paper PMC10883282.

Experiments:
SW1353 = experiment: standardised AUC of viability dose-response curve (72 h) (fraction (0-1)); higher = less growth inhibition (more resistant)
Method in brief: (§1)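 In 384-well plates, sarcoma cell lines were exposed for 72 h, in triplicate, to 2.5 µl of a 1:3 compound dilution series whose compound-plate concentrations ran from 10 mM to 0.0002 mM. Four-parameter log-logistic models were fitted per drug and cell line to ATPLite viability, scaled 1 (full) to 0 (none). From these fits, a modified drexplorer computeAUC gave the standardised area under the curve in log-dose space. Here 1 marks no response and 0 full response.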

SW684 = experiment: as above
Method in brief: as §1

MES-SA = experiment: as above
Method in brief: as §1

SYO-1 = experiment: as above
Method in brief: as §1

HS729 = experiment: as above
Method in brief: as §1

SW872 = experiment: as above
Method in brief: as §1

SK-ES-1 = experiment: as above
Method in brief: as §1

HT1080 [1] = experiment: as above
Method in brief: as §1

SW982 = experiment: as above
Method in brief: as §1

A204 = experiment: as above
Method in brief: as §1

RD-ES [2] = experiment: as above
Method in brief: as §1

G401 = experiment: as above
Method in brief: as §1

KHOS-NP [3] = experiment: as above
Method in brief: as §1

SK-LMS-1 = experiment: as above
Method in brief: as §1

KHOS-240S = experiment: as above
Method in brief: as §1

VA-ES-BJ [4] = experiment: as above
Method in brief: as §1

RD [5] = experiment: as above
Method in brief: as §1

HT1080 [6] = experiment: relative viability vs DMSO control (72 h) (fraction); higher = more viable cells
Method in brief: (§2)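 ATPLite readings, expressed as percent growth and averaged over up to triplicate wells, provided relative viability. Before reading, sarcoma cell lines seeded in 384-well plates to reach 80–90% confluence received 2.5 µl of serially diluted compound after 24 h, from source plates of 10 mM to 0.0002 mM. Plates were held 72 h at 37 °C, 5% CO2, with 0.1% DMSO as vehicle and a 5 µM positive control. The data were rescaled to 1 for full and 0 for none.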

RD-ES [7] = experiment: as above
Method in brief: as §2

KHOS-NP [8] = experiment: as above
Method in brief: as §2

VA-ES-BJ [9] = experiment: as above
Method in brief: as §2

RD [10] = experiment: as above
Method in brief: as §2

COc1cc2ncnc(Nc3cccc(Cl)c3F)c2cc1OC(=O)N1CCN(C)C[C@H]1C [AZD-3759]
Conditions	standardised AUC
A204	0.958
G401	0.972
HS729	0.906
HT1080 [1]	0.975
KHOS-240S	0.967
KHOS-NP [3]	0.969
MES-SA	0.974
RD [5]	0.991
RD-ES [2]	0.992
SK-ES-1	0.972
SK-LMS-1	0.964
SW684	0.978
SW872	0.967
SW982	0.977
SW1353	0.922
SYO-1	0.91
VA-ES-BJ [4]	0.955

relative viability
Conditions	HT1080 [6]	KHOS-NP [8]	RD [10]	RD-ES [7]	VA-ES-BJ [9]
0.00017 µM	1.06	1.1	1.04	0.97	1.03
0.00051 µM	1.04	1.11	1.1	0.967	1.05
0.00152 µM	1.02	1.105	1.1	0.9816	1.04
0.00457 µM	1.04	1.1	1.1	0.977	1.02
0.01372 µM	1.03	1.109	1.11	0.983	1.02
0.04115 µM	1.03	1.07	1.09	0.991	0.992
0.1235 µM	1.01	1.09	1.09	0.9757	0.986
0.3704 µM	1.02	1.04	1.12	0.9684	0.949
1.111 µM	1.026	1.07	1.08	0.961	0.975
3.333 µM	1	0.998	1.06	0.948	0.972
10 µM	1.02	1.02	0.97	0.915	0.952
